Assay results from patent US9957325B2, “Synthetic antibody mimic peptides” (Formurex, Inc., priority 2015, dated 2018).
One block for each compound: values may come before it. Where a SMILES comes first, the peptide text is derived from it. Where no end group is shown, it is not given here.

Tests used:
[1] = biological target: T1, HER2 recombinant human protein (Homo sapiens, UniProt P04626); test: Surface plasmon resonance on immobilized HER2; type: binding; details: SPR
T1 construct: purchased Life Technologies / Thermo Fisher Scientific Inc
T1 sequence (P04626 23-1255): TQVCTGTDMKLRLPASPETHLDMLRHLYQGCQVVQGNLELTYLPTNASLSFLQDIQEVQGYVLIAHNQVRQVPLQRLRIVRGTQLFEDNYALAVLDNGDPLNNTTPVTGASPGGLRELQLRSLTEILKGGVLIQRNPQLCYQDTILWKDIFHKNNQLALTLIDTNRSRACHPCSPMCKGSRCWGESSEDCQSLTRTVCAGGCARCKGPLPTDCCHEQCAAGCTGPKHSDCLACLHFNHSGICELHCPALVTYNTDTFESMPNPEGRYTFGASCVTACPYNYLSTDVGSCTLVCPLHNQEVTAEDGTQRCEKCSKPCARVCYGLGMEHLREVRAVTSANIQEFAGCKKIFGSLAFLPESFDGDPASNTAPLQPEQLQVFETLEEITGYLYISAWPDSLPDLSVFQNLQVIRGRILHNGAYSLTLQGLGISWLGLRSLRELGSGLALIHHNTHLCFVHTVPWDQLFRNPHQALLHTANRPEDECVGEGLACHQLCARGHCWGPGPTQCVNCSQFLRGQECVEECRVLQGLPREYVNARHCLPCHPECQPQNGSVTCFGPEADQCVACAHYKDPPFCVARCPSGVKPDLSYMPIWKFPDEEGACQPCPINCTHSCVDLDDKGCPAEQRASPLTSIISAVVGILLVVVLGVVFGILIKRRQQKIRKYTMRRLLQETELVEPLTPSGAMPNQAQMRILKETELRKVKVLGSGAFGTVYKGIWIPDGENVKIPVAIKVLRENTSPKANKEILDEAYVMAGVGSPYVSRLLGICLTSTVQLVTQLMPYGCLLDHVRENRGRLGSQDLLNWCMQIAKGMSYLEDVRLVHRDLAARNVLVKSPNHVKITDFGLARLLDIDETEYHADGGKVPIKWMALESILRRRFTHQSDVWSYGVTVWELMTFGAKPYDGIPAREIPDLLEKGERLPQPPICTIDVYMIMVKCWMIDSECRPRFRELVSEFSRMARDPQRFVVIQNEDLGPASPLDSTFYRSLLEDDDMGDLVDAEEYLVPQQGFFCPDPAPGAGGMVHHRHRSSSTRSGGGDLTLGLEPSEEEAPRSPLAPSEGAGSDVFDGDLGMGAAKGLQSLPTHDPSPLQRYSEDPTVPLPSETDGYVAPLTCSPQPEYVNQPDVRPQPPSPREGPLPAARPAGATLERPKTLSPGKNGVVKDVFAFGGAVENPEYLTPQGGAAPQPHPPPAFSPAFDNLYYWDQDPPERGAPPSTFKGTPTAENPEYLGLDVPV
Procedure: All experiments were carried out at 25° C. with a data collection rate of 2 Hz. The running method was created using the Autolink control software. PBS with 0.01% Tween 20 (pH7.4) buffers were filtered and thoroughly degassed before use. HER2 recombinant human protein was covalently attached to the left channel of a 500,000 Da carboxymethylated dextran sensor chip using EDC and NHS chemistries. Then, the chip was blocked by passing EA for 8 minutes at a rate of 10 μL/min. […] Triplicate determinations were done at each concentration. The bound surface was regenerated by sequential injections of 10 mM glycine in PBST (pH 2.5).
The sensorgrams from SPR were globally treated using Scrubber 2® software where all traces were zeroed, cropped, aligned, and referenced. Kinetic constants ka and kd were determined by global fitting analyses of the titration curves using the 1:1 Lagmurian interaction model taking into account the mass transport. The equilibrium dissociation constant (KD) was calculated from the kd/ka ratio.

[2] = test system: MDA-MB-361, ZR-75-1 and HEK293 cells; test: Confocal microscopy binding of FITC labeled HER2-PEPs; type: cell-based; details: 10 μM FITC labeled peptide, 15 minutes at 37° C.
Procedure: MDA-MB-361, ZR-75-1 and […] cells were grown in T75 flasks at 37° C. and 5% CO2. Upon reaching 80% confluency, the cells were counted and seeded onto coverslips placed inside 6-well culture plates at a density of 80,000 cells/well. The cells were allowed to attach for 24 hours before the experiment was performed. Upon attachment, the cells were washed twice with HBSS and serum free media.
Stock solutions of FITC labeled HER2-PEPs and control peptide were prepared with dimethyl sulfoxide (DMSO). Stock solutions were diluted with serum free media medium several times and less than 1% of DMSO was presented in the final solutions of all peptides (10 μM), which were added to the 6-well culture plates.
After incubating 15 minutes at 37° C., the medium was removed and the cells were washed twice with HBSS. The cells were then treated with a 2.5 μg/mL solution of Alexa fluor 594 wheat germ agglutinin in HBSS for 10 minutes to stain the cell plasma membrane. The dye solution was removed and cells were washed twice with HBSS. The cells were then fixed by performing a 15 minute treatment using 4% paraformaldehyde solution prepared in HBSS. The cells were washed with HBSS followed by a final wash of distilled water. […] The FITC fluorescence was visualized using 491 nm and the Alexa fluor 594 fluorescence was visualized using 561 nm wavelength filter.

MDA-MB-468 cells [3] = test: In vitro cytotoxicity, sulforhodamine B assay; type: cell-based; details: MDA-MB-468, 72 h, SRB
Procedure: (§1) Cells were cultured to 80% confluency in T75 culture flasks using Dulbecco's Modified Eagle's Medium (DMEM) as growth medium. The cell density was determined using a Coulter Counter. The cells were seeded onto 96 well plates and grown for 24 h. to 50% confluency. […] At the end of the incubation period, the cells were fixed using 10% trichloroacetic acid, followed by washing with distilled water and drying. The cellular proteins were stained using 50 μL of 0.4% sulforhodamine B (SRB) in 1% acetic acid. Unbound SRB was washed with 1% acetic acid and the plates were dried overnight. The cell-bound SRB was then solubilized using 200 μL of 10 mM unbuffered Tris base solution. SRB absorbance was measured at 560 nm wavelength using a Plate Reader. The percent viability of cells was plotted as a function of log concentration and data was analyzed in GraphPad Prism Version 5.0 software (GraphPad Software, Inc., California, USA) using a nonlinear-regression curve fit (variable slope four parameter equation).

Recombinant human EGFR = Recombinant human EGFR (Homo sapiens, UniProt P00533); test: Surface plasmon resonance on immobilized EGFR; details: SPR, EGFR as immobilized surface, 1:1 binding model, 25° C.
Recombinant human EGFR, sequence (P00533 25-1210): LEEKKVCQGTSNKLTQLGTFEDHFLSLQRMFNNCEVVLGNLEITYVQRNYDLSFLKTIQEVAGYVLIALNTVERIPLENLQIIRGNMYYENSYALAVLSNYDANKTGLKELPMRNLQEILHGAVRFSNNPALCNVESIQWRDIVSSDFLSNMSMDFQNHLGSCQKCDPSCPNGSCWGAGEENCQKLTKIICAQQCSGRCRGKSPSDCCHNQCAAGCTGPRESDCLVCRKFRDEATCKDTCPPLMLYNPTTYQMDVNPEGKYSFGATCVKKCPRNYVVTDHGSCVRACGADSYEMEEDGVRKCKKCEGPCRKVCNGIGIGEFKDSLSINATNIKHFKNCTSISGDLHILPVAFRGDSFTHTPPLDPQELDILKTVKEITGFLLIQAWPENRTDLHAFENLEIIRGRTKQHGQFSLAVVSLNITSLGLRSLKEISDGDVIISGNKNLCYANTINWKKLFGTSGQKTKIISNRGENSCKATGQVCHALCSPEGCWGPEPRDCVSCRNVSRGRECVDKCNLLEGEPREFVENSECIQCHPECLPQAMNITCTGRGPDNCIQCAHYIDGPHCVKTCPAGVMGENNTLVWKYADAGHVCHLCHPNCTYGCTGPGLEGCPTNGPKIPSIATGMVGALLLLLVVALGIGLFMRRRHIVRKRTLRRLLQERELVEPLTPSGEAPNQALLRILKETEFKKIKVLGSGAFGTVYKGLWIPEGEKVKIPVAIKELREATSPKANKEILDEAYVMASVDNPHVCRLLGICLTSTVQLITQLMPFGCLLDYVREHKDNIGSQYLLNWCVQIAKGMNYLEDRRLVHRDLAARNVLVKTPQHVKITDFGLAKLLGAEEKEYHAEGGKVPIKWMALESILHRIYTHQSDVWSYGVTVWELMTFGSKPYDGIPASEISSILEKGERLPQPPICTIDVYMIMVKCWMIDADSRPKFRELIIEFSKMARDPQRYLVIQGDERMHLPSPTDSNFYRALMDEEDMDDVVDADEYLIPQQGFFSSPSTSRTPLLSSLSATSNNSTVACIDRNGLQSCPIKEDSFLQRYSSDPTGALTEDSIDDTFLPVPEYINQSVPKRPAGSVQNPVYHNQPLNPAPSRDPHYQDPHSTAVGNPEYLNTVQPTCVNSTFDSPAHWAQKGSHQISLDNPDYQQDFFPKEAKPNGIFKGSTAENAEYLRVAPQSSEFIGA
Procedure: Binding affinity constant of antibody mimics was calculated by surface plasmon resonance (Reichert SR7000DC). A carboxymethyl dextran gold sensor chip was activated by N-hydroxysuccinimide (NHS) and N-ethyl-N″-[3-([…])propyl] carbodiimide (EDC) at 25° C. using phosphate buffered saline pH 7.4 with 0.05% tween 20 as running buffer. […] Unreactive sites were blocked by flowing over the chip 1 M ethanolamine pH 8.5 at 10 μL/min for 8 minutes. […] The resulting sensograms were globally fitted using Scrubber2 software (BioLogic Software, Campbell, Australia) in a 1:1 binding model to determine the association rate (kon), dissociation rate (kd or koff), and dissociation constant KD.

[4] = test system: A431, MDA-MB-468 and HEK 293 cells; test: Confocal binding/internalization of FITC labeled peptides; type: cell-based
Procedure: (§2) A431, MDA-MB-468 and HEK 293 cells were cultured in 75 cm^2 culture flasks in DMEM supplemented with 10% FBS. For binding/internalization studies, 5×10^5 cells were seeded in cover slips in 6 well culture plates overnight. After the medium was removed, the cells were washed with HBSS and then cells were treated with FITC labeled antibody mimic and scrambled (control) peptide in serum free DMEM for 30 minutes at 37° C. Cells were then washed with HBSS to remove any unbound peptides and incubated with AlexaFluor 594 wheat germ agglutinin to stain cell membranes. Cells were fixed with 4% paraformaldehyde and cover slips were mounted on slides which contain a drop of SlowFade®. Cells were then imaged with an inverted Leica DMIRE2 fluorescence microscope (Leica Biosystems Richmond Inc., Richmond, USA) using a Yokogawa CSUX1 confocal scanner unit. For flow cytometry studies, cells were washed with HBSS after incubation with antibody mimics, control peptide for 30 minutes, and dissociated using trypsin-EDTA. Cells were then centrifuged at 500 g for 5 min. Supernatant was removed and cell pellets were re-suspended in FACS solution. The cell suspension was then analyzed on a Beckman Coulter flow cytometer and data were analyzed using the Cell Questpro. A total of 10000 events were collected monitoring FITC.

A431 cells [5] = details: A431, 72 h, SRB
Procedure: as §1

HEK 293 cells = test system: HEK 293 cells
Procedure: as §1

ZR-75-1 cells = test: Flow cytometry of FITC labeled HER2 mimics; type: cell-based; details: ZR-75-1, 10 μM, 15 minutes
Procedure: (§3) Flow cytometric studies were carried out to quantify the fluorescence intensity of cells after being incubated with FITC labeled mimics. MDA-MB-361, ZR-75-1 and HEK293 cells were seeded in 6-well culture plates at a density of 3×10^5 cells per well for 24 hours and then incubated with FITC labeled mimics at a concentration of 10 μM in HBSS at 37° C. for 15 minutes. After washing with HBSS twice, cells remaining on the plates were trypsinized with Trpsin-EDTA and centrifuged at 1500 rpm for 5 min. Supernatant was removed and cell pellets were resuspended in 1 ml of HBSS. The suspension was transferred to a FACS Calibur™ flow cytometer and cell fluorescence was measured with high dynamic range photomultipliers with a 530 nm filter. Quantitative changes of fluorescence in different cells samples were assessed by mean fluorescence intensity (MFI), and FACS data were analyzed using BD CellQuest™ Pro software. Paired t-tests were used to determine statistical significance using the GraphPad Prism 5® Software. P-values less than or equal to 0.05 were considered to be statistically significant.

MDA-MB-361 cells = test: Flow cytometry of FITC labeled HER2 mimics; type: cell-based; details: MDA-MB-361, 10 μM, 15 minutes
Procedure: as §3

HEK293 cells = test: Flow cytometry of FITC labeled HER2 mimics; type: cell-based, human; details: HEK 293, 10 μM, 15 minutes
Procedure: as §3

A431 cells [6] = test: Flow cytometry uptake of FITC labeled peptides; type: cell-based
Procedure: as §2

MDA-MB-468 cells [7] = test: Flow cytometry uptake of FITC labeled peptides; type: cell-based
Procedure: as §2

KD higher than that of HER2-PEP11 and HER2-PEP21 [1]: about 2000 fold
kd ([1]; HER2 immobilized, 1:1 model, 25° C.): 0.0181 s⁻¹
kon ([1]; HER2 immobilized, 1:1 model, 25° C., read-out: ka): 131 M⁻¹ s⁻¹
Compound: CC(C)C[C@H](NC(=O)[C@H](Cc1ccccc1)NC(=O)CNC(=O)[C@H](C)NC(=O)[C@H](CC(=O)O)NC(=O)[C@H](CC(N)=O)NC(=O)[C@@H]1CCCN1C(=O)[C@H](Cc1ccc(O)cc1)NC(=O)CNC(=O)[C@H](CCC(N)=O)NC(=O)[C@@H]1CCCN1C(=O)[C@H](CO)NC(=O)[C@@H](N)[C@@H](C)O)C(=O)NCC(=O)N[C@@H](CCCNC(=N)N)C(=O)N[C@@H](CCC(=O)O)C(=O)N[C@@H](CO)C(=O)N[C@H](C(=O)N[C@@H](CC(N)=O)C(=O)O)[C@@H](C)O [HER2-Pep22] (H-TSPQGYPNDAGFLGRESTN-OH; N-terminus and C-terminus assumed)
binding to cells, confocal microscopy [2]: no binding to all the three cell lines

Compound: C[C@H](NC(=O)[C@H](CCC(=O)O)NC(=O)[C@H](Cc1ccc(O)cc1)NC(=O)[C@H](CC(=O)O)NC(=O)[C@H](Cc1ccc(O)cc1)NC(=O)[C@H](Cc1ccccc1)NC(=O)CNC(=O)[C@@H]1CCCN1C(=O)CNC(=O)[C@H](CC(N)=O)NC(=O)[C@H](CCC(=O)O)NC(=O)CNC(=O)[C@H](CO)NC(=O)[C@@H](N)Cc1c[nH]c2ccccc12)C(=O)O [Pep11] (H-WSGENGPGFYDYEA-OH; N-terminus and C-terminus assumed)
IC50 (MDA-MB-468 cells [3]): 420 nM
Kd (Recombinant human EGFR): 252 nM
koff (Recombinant human EGFR): 0.0252 s⁻¹
kon (Recombinant human EGFR): 100000 M⁻¹ s⁻¹
binding to cells after cetuximab pre-incubation ([4]; EGFR blocked by cetuximab for 30 min, A431 and MDA-MB-468): inhibited/decreased
IC50 (A431 cells [5]): 388 nM
IC50 (HEK 293 cells; HEK 293, 72 h, SRB): 1040 nM
lower potency towards control cells compared to cancer cells (HEK 293 cells; HEK 293 vs cells that over-express EGFR): 2- to 3 fold

Compound: FITC-HER2-PEP22: FITC labeled control peptide HER2-PEP22 (TSPQGYPNDAGFLGRESTN; not fully specified (N-terminus); also: FITC labeled)
MFI (ZR-75-1 cells): 19.6±3.2
MFI (MDA-MB-361 cells): 22.1±0.5
MFI (HEK293 cells): 14.7±1.7

Compound: SGEWAYDGYEPNFG (Synthetic amino acid - Control) [Pep25, scrambled peptide, negative control]
binding to cells, confocal fluorescence ([4]; FITC labeled peptide, 30 minutes at 37° C.): negligible binding
binding to cancer cell line, flow cytometry (A431 cells [6]): negligible binding
binding to cancer cell line, flow cytometry (MDA-MB-468 cells [7]): negligible binding
